Here are results for 13 compounds from patent US20080227730A1, “9A-Carbamoyl and Thiocarbamoyl Azalides With Antimalarial Activity” (GLAXOSMITHKLINE ISTRAZIVACKI CENTAR ZAGREB D.O.O., priority 2005, published 2008).

In experiment [1] the test system is Plasmodium falciparum TM91C235. Kind of experiment: In vitro antimalarial [3H]-hypoxanthine incorporation assay, strain TM91C235. The conditions noted are these: P. falciparum TM91C235 (multiple drug resistant isolate from Thailand), parasites exposed for 72 hours, azithromycin value averaged. The experiment is classed as cell-based. An excerpt:
(§1) The in vitro screens for intrinsic antimalarial activity were based on modifications of the procedures described by Desjardins R E, Canfield C J, Haynes J D, Chulay J D. (Quantitative assessment of antimalarial activity in vitro by a semiautomated microdilution technique. Antimicrob Agents Chemother. 1979 December; 16(6):710-8.), Chulay J D, Haynes J D, Diggs C L. (Plasmodium falciparum: Assessment of in vitro growth by [3H]hypoxanthine incorporation. Exp. Parasitol. 1983 55:138-146.), and Milhous W N, Weatherly N F, Bowdre J H, Desjardins R E. (In vitro activities of and mechanisms of resistance to antifol antimalarial drugs. Antimicrob Agents Chemother. 1985 April; 27(4):525-30.). The system was limited to the assessment of the intrinsic activity against the erythrocytic asexual life cycle (blood schizontocides). Two Plasmodium falciparum clones from CDC/Indochina III (W-2) and CDC/Sierra Leone I (D-6) (Oduola A M, Weatherly N F, Bowdre J H, Desjardins R E. Plasmodium falciparum: cloning by single-erythrocyte micromanipulation and heterogeneity in vitro. Exp Parasitol. 1988 66(1):86-95.) were used for all assays. TM91C235, a multiple drug resistant isolate from Thailand, was used for the prescreening assay. W-2 is resistant to chloroquine, quinine, and pyrimethamine and susceptible to mefloquine. D-6 tends to be more resistant to mefloquine and susceptible to chloroquine, quinine, and pyrimethamine. All documents cited in this paragraph are incorporated by reference in their entirety.
(§2) All parasites were maintained in continuous long term cultures in RPMI-1640 medium supplemented with 6% washed human A positive (A+)(erythrocytes, 25 mM Hepes, […], and 10% heat inactivated A+ human plasma or ALBUMAX® (lipid-rich bovine serum albumin; Invitrogen, Carlsbad, Calif.). All cultures and assays were conducted at 37° C. under an atmosphere of 5% CO2 and 5% O2, with a balance of N2.
(§3) The prescreening assay uses TM91C235 diluted at a 0.4% parasitemia in a 1% hematocrit in folic acid free and p-aminobenzoic acid free media RPMI-1640 and ALBUMAX®. One mg of the compound is typically dissolved in 100 μl of dimethyl sulfoxide (DMSO). The compound is further diluted in culture medium (FF) with ALBUMAX® for the first initial starting concentration. The rest of the stock drug solution was kept at −70° C. The isolate was preexposed, in duplicate, at three concentrations (25,000 ng/ml, 2,500 ng/ml, and 25 ng/ml) of the test compound for 48 hr in a 96-well microtiter plate (MTP) using the BIOMEK® 2000 automated laboratory workstation. Each MTP contains chloroquine as control to assess the relative activity of the compound and to monitor the response of TM91C235.
(§4) After the preincubation, [^3H]-hypoxanthine was added to each well of the MTP. (The assay relies on the incorporation of radiolabeled hypoxanthine by the parasites, which indicates reproduction, and inhibition of isotope incorporation was attributed to activity of known or candidate antimalarial drugs). After 72 hr of total incubation time, the MTP were frozen to lyse the erythrocytes and parasites. The parasite DNA was recovered by harvesting the lysate onto glass-fiber filter plates using a Packard FilterMate™ Cell Harvester. The radioactivity was counted on a Packard TopCount™ microplate scintillation counter. The results were recorded as counts per minutes (CPM) per well at each drug concentration divided by the arithmetic mean of the CPM from the three untreated infection parasite control wells.
(§5) The serial dilution assay was conducted using the same assay conditions and stock solution of the compound used for the preliminary screen, described above. Both the D-6 and the W-2 clones were used. The compounds were diluted two-fold over 11 different concentration ranges with a starting concentration that was based on the preliminary screen. […]

Experiment [2] has as its system Plasmodium falciparum W-2 (CDC/Indochina III). Put plainly: In vitro antimalarial [3H]-hypoxanthine incorporation serial dilution assay, clone W2. The experiment is classed as cell-based. As to conditions: P. falciparum W2 clone, parasites exposed for 72 hours, azithromycin value averaged.
Text: as §1, §2, §3, §4, §5

The subject of experiment [3] is Plasmodium falciparum D-6 (CDC/Sierra Leone I). Put plainly: In vitro antimalarial [3H]-hypoxanthine incorporation serial dilution assay, clone D6. The conditions noted are these: P. falciparum D6 clone, parasites exposed for 72 hours, azithromycin value averaged. The experiment is classed as cell-based.
Text: as §1, §2, §3, §4, §5

The subject of a further experiment is Plasmodium berghei. The conditions noted are these: cited from earlier work.
Another experiment concerns Plasmodium cynomolgi. As to conditions: rhesus monkey; cited from earlier work.
For experiment [4], the system named is Plasmodium yoelii nigeriensis. The conditions noted are these: cited from earlier work.
A further experiment has as its system Plasmodium vivax. The conditions noted are these: non-immune patients, as compared to controls; cited from earlier work.
For the next experiment, the system named is Plasinodium falciparum. As to conditions: non-immune patients, Plasmodium falciparum, as compared to controls; cited from earlier work.

≈ marks a conversion by molar mass, not a printed value.

For `CC[C@H]1OC(=O)[C@H](C)[C@@H](O[C@H]2C[C@@](C)(OC)[C@@H](O)[C@H](C)O2)[C@H](C)[C@@H](O[C@@H]2O[C@H](C)C[C@H](N(C)C)[C@H]2O)[C@](C)(O)C[C@@H](C)CN(C(=O)Nc2ccc(S(=O)(=O)Nc3ccccn3)cc2)[C@H](C)[C@@H](O)[C@]1(C)O` [Compound 2], the IC50 in experiment [1] was 1.03 µg/mL (≈ 1.02 µM); in experiment [2], above 1.76 µg/mL; in experiment [3] it was 0.251 µg/mL (≈ 0.248 µM).

As for midecamycinin, the “activity in mouse model” value (in the experiment on Plasmodium berghei; in experiment [4]) was “active” each time. Also, in the experiment on Plasmodium cynomolgi, the “efficacy in monkey model” value is on record as “no efficacy”.

For the compound `CC[C@H]1OC(=O)[C@H](C)[C@@H](O[C@H]2C[C@@](C)(OC)[C@@H](O)[C@H](C)O2)[C@H](C)[C@@H](O[C@@H]2O[C@H](C)C[C@H](N(C)C)[C@H]2O)[C@](C)(O)C[C@@H](C)CN(C(=S)NCc2ccccc2)[C@H](C)[C@@H](O)[C@]1(C)O` [Compound 11], the 50% inhibitory concentration (IC50) amounted to 0.304 µg/mL (≈ 0.344 µM) in experiment [1], 0.386 µg/mL (≈ 0.436 µM) in experiment [2] and 0.253 µg/mL (≈ 0.286 µM) in experiment [3].

On to `CC[C@H]1OC(=O)[C@H](C)[C@@H](O[C@H]2C[C@@](C)(OC)[C@@H](O)[C@H](C)O2)[C@H](C)[C@@H](O[C@@H]2O[C@H](C)C[C@H](N(C)C)[C@H]2O)[C@](C)(O)C[C@@H](C)CN(C(=O)Nc2ccc(S(=O)(=O)Nc3cc(C)on3)cc2)[C@H](C)[C@@H](O)[C@]1(C)O` [Compound 4], for which the concentration for half-maximal inhibition (IC50) in experiment [1] is above 1.62 µg/mL; in experiment [2], 1.59 µg/mL (≈ 1.57 µM); in experiment [3], 0.12 µg/mL (≈ 0.118 µM).

As to `CC[C@H]1OC(=O)[C@H](C)[C@@H](O)[C@H](C)[C@@H](O[C@@H]2O[C@H](C)C[C@H](N(C)C)[C@H]2O)[C@](C)(O)C[C@@H](C)CN(C(=O)Nc2ccc(S(=O)(=O)Nc3ccccn3)cc2)[C@H](C)[C@@H](O)[C@]1(C)O` [Compound 6], the IC50 is above 1.62 µg/mL in experiment [1], above 1.76 µg/mL in experiment [2] and 0.0908 µg/mL (≈ 0.107 µM) in experiment [3].

Regarding `CC[C@H]1OC(=O)[C@H](C)[C@@H](O[C@H]2C[C@@](C)(OC)[C@@H](O)[C@H](C)O2)[C@H](C)[C@@H](O[C@@H]2O[C@H](C)C[C@H](N(C)C)[C@H]2O)[C@](C)(O)C[C@@H](C)CN(C(=O)Nc2cccc3ccccc23)[C@H](C)[C@@H](O)[C@]1(C)O` [Compound 8], the figures for the IC50 in experiment [1], in experiment [2] and in experiment [3] were 0.712 µg/mL (≈ 0.788 µM), 1.9 µg/mL (≈ 2.11 µM) and 0.751 µg/mL (≈ 0.831 µM), respectively.

With `CC[C@H]1OC(=O)[C@H](C)[C@@H](O[C@H]2C[C@@](C)(OC)[C@@H](O)[C@H](C)O2)[C@H](C)[C@@H](O[C@@H]2O[C@H](C)C[C@H](N(C)C)[C@H]2O)[C@](C)(O)C[C@@H](C)CN(C(=O)NS(=O)(=O)c2ccccc2Cl)[C@H](C)[C@@H](O)[C@]1(C)O` [Compound 3], the IC50 in experiment [1] was above 1.62 µg/mL; in experiment [2], 1.43 µg/mL (≈ 1.5 µM); in experiment [3] it was 1.11 µg/mL (≈ 1.17 µM).

Regarding `CC[C@H]1OC(=O)[C@H](C)[C@@H](O[C@H]2C[C@@](C)(OC)[C@@H](O)[C@H](C)O2)[C@H](C)[C@@H](O[C@@H]2O[C@H](C)C[C@H](N(C)C)[C@H]2OC(C)=O)[C@](C)(O)C[C@@H](C)CN(C(=O)NC(C)C)[C@H](C)[C@@H](O)[C@]1(C)O` [Compound 10], the IC50 was 0.353 µg/mL (≈ 0.41 µM) in experiment [1], above 1.76 µg/mL in experiment [2] and above 0.797 µg/mL in experiment [3].

As for `CC[C@H]1OC(=O)[C@H](C)[C@@H](O[C@H]2C[C@@](C)(OC)[C@@H](O)[C@H](C)O2)[C@H](C)[C@@H](O[C@@H]2O[C@H](C)C[C@H](N(C)C)[C@H]2O)[C@](C)(O)C[C@@H](C)CN(C(=S)Nc2cccc(Cl)c2)[C@H](C)[C@@H](O)[C@]1(C)O` [Compound 9], the concentration for half-maximal inhibition (IC50) in experiment [2] was 1.5 µg/mL (≈ 1.66 µM); in experiment [3] it was 0.762 µg/mL (≈ 0.843 µM).

In the case of `CC[C@H]1OC(=O)[C@H](C)[C@@H](O[C@H]2C[C@@](C)(OC)[C@@H](O)[C@H](C)O2)[C@H](C)[C@@H](O[C@@H]2O[C@H](C)C[C@H](N(C)C)[C@H]2O)[C@](C)(O)C[C@@H](C)CN(C(=O)Nc2ccc(S(=O)(=O)Nc3ccccc3)cc2)[C@H](C)[C@@H](O)[C@]1(C)O` [Compound 1], the IC50 in experiment [1] turned out to be 0.299 µg/mL (≈ 0.296 µM); in experiment [2], 0.448 µg/mL (≈ 0.444 µM); in experiment [3], 0.428 µg/mL (≈ 0.424 µM).

As for `CC[C@H]1OC(=O)[C@H](C)[C@@H](O)[C@H](C)[C@@H](O[C@@H]2O[C@H](C)C[C@H](N(C)C)[C@H]2O)[C@](C)(O)C[C@@H](C)CN(C(=O)Nc2ccc(S(=O)(=O)Nc3cc(C)on3)cc2)[C@H](C)[C@@H](O)[C@]1(C)O` [Compound 5], the figures for the concentration for half-maximal inhibition (IC50) in experiment [1], in experiment [2] and in experiment [3] were above 1.62 µg/mL, above 1.76 µg/mL and 0.0523 µg/mL (≈ 0.0611 µM), respectively.

Turning to `CC[C@H]1OC(=O)[C@H](C)[C@@H](O[C@H]2C[C@@](C)(OC)[C@@H](O)[C@H](C)O2)[C@H](C)[C@@H](O[C@@H]2O[C@H](C)C[C@H](N(C)C)[C@H]2O)[C@](C)(O)C[C@@H](C)CN(C(=O)Nc2cccc(Cl)c2)[C@H](C)[C@@H](O)[C@]1(C)O` [Compound 7], the half-maximal inhibitory concentration (IC50) came out at 1.22 µg/mL (≈ 1.37 µM) in experiment [2] and 0.583 µg/mL (≈ 0.656 µM) in experiment [3].

Turning to `CC[C@H]1OC(=O)[C@H](C)[C@@H](O[C@H]2C[C@@](C)(OC)[C@@H](O)[C@H](C)O2)[C@H](C)[C@@H](O[C@@H]2O[C@H](C)C[C@H](N(C)C)[C@H]2O)[C@](C)(O)C[C@@H](C)CN(C)[C@H](C)[C@@H](O)[C@]1(C)O` [azithromycin], the prophylactic efficacy is listed as 98.9% with Plasmodium vivax and 71.6% in the experiment with Plasinodium falciparum. For the same compound, in the experiment on Plasmodium cynomolgi, the “efficacy in monkey model” value was “active”.
